# Laboratory results reported in PubChem BioAssay AID248 (DTP/NCI, 2004).
# Inconclusive results and toxic doses are left out.
# Test system: L1210 leukemia ip in BDF1 mice, survival T/C
# Experiment: NCI In Vivo Anticancer Drug Screen. Data for tumor model L1210 Leukemia (intraperitoneal) in B6D2F1 (BDF1) mice
# Settings: endpoint: mean survival time, higher = longer survival
# Outline: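 In this screen, tumor-bearing mice given compound are compared to those given vehicle, and their survival values are reported as a treated-to-control quotient.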
# [1] = dose: 100.0 mg/kg/injection, schedule: Q04DX002 (ip), vehicle: Klucel (hydroxypropylcellulose) (HPC)
# [2] = dose: 200.0 mg/kg/injection, schedule: Q04DX002 (ip), vehicle: Klucel (hydroxypropylcellulose) (HPC)
# [3] = dose: 400.0 mg/kg/injection, schedule: Q04DX002 (ip), vehicle: Klucel (hydroxypropylcellulose) (HPC)
# [4] = dose: 100.0 mg/kg/injection, schedule: Q01DX001 (ip), vehicle: carboxymethylcellulose (CMC)
# [5] = dose: 200.0 mg/kg/injection, schedule: Q01DX001 (ip), vehicle: carboxymethylcellulose (CMC)
# [6] = dose: 400.0 mg/kg/injection, schedule: Q01DX001 (ip), vehicle: carboxymethylcellulose (CMC)
# [7] = dose: 100.0 mg/kg/injection, schedule: Q04DX003 (ip), vehicle: saline
# [8] = dose: 100.0 mg/kg/injection, schedule: Q01DX001 (ip), vehicle: saline
# [9] = dose: 200.0 mg/kg/injection, schedule: Q01DX001 (ip), vehicle: saline
# [10] = dose: 100.0 mg/kg/injection, schedule: Q01DX009 (ip), vehicle: Klucel (hydroxypropylcellulose) (HPC)
# [11] = dose: 200.0 mg/kg/injection, schedule: Q01DX009 (ip), vehicle: Klucel (hydroxypropylcellulose) (HPC)
# [12] = dose: 400.0 mg/kg/injection, schedule: Q01DX009 (ip), vehicle: Klucel (hydroxypropylcellulose) (HPC)
compound,measurement,setting,value
O=S(=O)(c1ccccc1)C(Br)c1ccccc1 (stereo not drawn),T/C,[1],101 % of control
same,T/C,[2],105 % of control
same,T/C,[3],97 % of control
O=C(O)c1ccc(/C=N/Nc2nnc(N/N=C/c3ccc(C(=O)O)cc3)c3ccccc23)cc1,T/C,"dose: 50.0 mg/kg/injection, schedule: Q01DX001 (ip), vehicle: carboxymethylcellulose (CMC)",113 % of control
same,T/C,[4],113 % of control
same,T/C,[5],107 % of control
same,T/C,[6],104 % of control
CCOC(=O)/C(=C\c1ccccn1)C(C)=O,T/C,"dose: 25.0 mg/kg/injection, schedule: Q04DX003 (ip), vehicle: saline",102 % of control
same,T/C,"dose: 50.0 mg/kg/injection, schedule: Q04DX003 (ip), vehicle: saline",102 % of control
same,T/C,[7],102 % of control
CCOC(=O)c1cnc(C(Cl)(Cl)Cl)[nH]c1=O,T/C,"dose: 100.0 mg/kg/injection, schedule: Q01DX001 (ip), vehicle: Klucel (hydroxypropylcellulose) (HPC)",94 % of control
same,T/C,"dose: 200.0 mg/kg/injection, schedule: Q01DX001 (ip), vehicle: Klucel (hydroxypropylcellulose) (HPC)",99 % of control
same,T/C,"dose: 400.0 mg/kg/injection, schedule: Q01DX001 (ip), vehicle: Klucel (hydroxypropylcellulose) (HPC)",92 % of control
Cc1ccc([I+]c2ccccc2C(=O)[O-])c(C)c1,T/C,"dose: 50.0 mg/kg/injection, schedule: Q01DX001 (ip), vehicle: saline",98 % of control
same,T/C,[8],102 % of control
same,T/C,[9],104 % of control
CCOC(CN(Cc1ccc(OC)c(OCc2ccccc2)c1)S(=O)(=O)c1ccc(C)cc1)OCC,T/C,"dose: 25.0 mg/kg/injection, schedule: Q01DX009 (ip), vehicle: water",102 % of control
same,T/C,"dose: 50.0 mg/kg/injection, schedule: Q01DX009 (ip), vehicle: water",94 % of control
same,T/C,"dose: 100.0 mg/kg/injection, schedule: Q01DX009 (ip), vehicle: water",97 % of control
same,T/C,"dose: 200.0 mg/kg/injection, schedule: Q01DX009 (ip), vehicle: water",94 % of control
same,T/C,"dose: 400.0 mg/kg/injection, schedule: Q01DX009 (ip), vehicle: water",96 % of control
Cc1cc(CC#N)c(C)c([N+](=O)[O-])c1,T/C,"dose: 25.0 mg/kg/injection, schedule: Q04DX003 (ip), vehicle: Klucel (hydroxypropylcellulose) (HPC)",96 % of control
same,T/C,"dose: 50.0 mg/kg/injection, schedule: Q04DX003 (ip), vehicle: Klucel (hydroxypropylcellulose) (HPC)",89 % of control
COc1ccc(OC)c(CC(C)=O)c1,T/C,[4],93 % of control
same,T/C,[5],101 % of control
same,T/C,[6],95 % of control
O=C(N/C=C/NC(=O)Nc1ccc([N+](=O)[O-])cc1)Nc1ccc([N+](=O)[O-])cc1,T/C,"dose: 100.0 mg/kg/injection, schedule: Q04DX003 (ip), vehicle: Klucel (hydroxypropylcellulose) (HPC)",100 % of control
same,T/C,"dose: 200.0 mg/kg/injection, schedule: Q04DX003 (ip), vehicle: Klucel (hydroxypropylcellulose) (HPC)",89 % of control
same,T/C,"dose: 400.0 mg/kg/injection, schedule: Q04DX003 (ip), vehicle: Klucel (hydroxypropylcellulose) (HPC)",92 % of control
CSc1ccc(NC(=O)C2CCCCC2C(=O)O)cc1 (stereo not drawn),T/C,[1],92 % of control
same,T/C,[2],111 % of control
same,T/C,[3],96 % of control
COC(=O)c1cc(C)c(N)cc1C,T/C,[8],96 % of control
same,T/C,[9],104 % of control
same,T/C,"dose: 400.0 mg/kg/injection, schedule: Q01DX001 (ip), vehicle: saline",102 % of control
CC(C)(C)N(CCC(=O)c1ccccc1)C(=O)c1ccccc1,T/C,[10],98 % of control
same,T/C,[11],102 % of control
same,T/C,[12],88 % of control
COC(=O)N(C1CCCCC1)C1CCCCC1,T/C,[10],97 % of control
same,T/C,[11],96 % of control
same,T/C,[12],100 % of control
C1CN2CCN1CC2,T/C,"dose: 37.5 mg/kg/injection, schedule: Q01DX009 (ip), vehicle: Klucel (hydroxypropylcellulose) (HPC)",91 % of control
same,T/C,"dose: 75.0 mg/kg/injection, schedule: Q01DX009 (ip), vehicle: Klucel (hydroxypropylcellulose) (HPC)",91 % of control
same,T/C,"dose: 150.0 mg/kg/injection, schedule: Q01DX009 (ip), vehicle: Klucel (hydroxypropylcellulose) (HPC)",89 % of control
same,T/C,"dose: 300.0 mg/kg/injection, schedule: Q01DX009 (ip), vehicle: Klucel (hydroxypropylcellulose) (HPC)",94 % of control
CCOC(=O)c1c(/N=C/c2ccc(N(C)C)cc2)sc2c1CCCC2,T/C,[1],107 % of control
same,T/C,[2],100 % of control
same,T/C,[3],104 % of control
Oc1cc(O)c(CN2CCCCC2)cc1CN1CCCCC1,T/C,[8],87 % of control
CC(C)(C)c1ccc2c(c1)CCCC2,T/C,"dose: 50.0 mg/kg/injection, schedule: Q01DX009 (ip), vehicle: saline with Tween-80",93 % of control
same,T/C,"dose: 100.0 mg/kg/injection, schedule: Q01DX009 (ip), vehicle: saline with Tween-80",89 % of control
same,T/C,"dose: 200.0 mg/kg/injection, schedule: Q01DX009 (ip), vehicle: saline with Tween-80",96 % of control
CCCCCCCCC1CCCCC1,T/C,"dose: 50.0 mg/kg/injection, schedule: Q04DX002 (sc), vehicle: olive oil, sesame oil, peanut oil",105 % of control
same,T/C,"dose: 100.0 mg/kg/injection, schedule: Q04DX002 (sc), vehicle: olive oil, sesame oil, peanut oil",109 % of control
same,T/C,"dose: 200.0 mg/kg/injection, schedule: Q04DX002 (sc), vehicle: olive oil, sesame oil, peanut oil",109 % of control
CCCC(CCC)NCC(C)O (stereo not drawn),T/C,"dose: 75.0 mg/kg/injection, schedule: Q01DX001 (ip), vehicle: acid diluted with saline",104 % of control
NC1=NC=NCN1c1ccc(N)cc1,T/C,"dose: 25.0 mg/kg/injection, schedule: Q01DX001 (ip), vehicle: saline with Tween-80",96 % of control
same,T/C,"dose: 50.0 mg/kg/injection, schedule: Q01DX001 (ip), vehicle: saline with Tween-80",102 % of control
same,T/C,"dose: 100.0 mg/kg/injection, schedule: Q01DX001 (ip), vehicle: saline with Tween-80",104 % of control
CCN(CC)c1ccc(NCS(=O)(=O)O)cc1,T/C,"dose: 50.0 mg/kg/injection, schedule: Q01DX009 (ip), vehicle: saline sonified",103 % of control
same,T/C,"dose: 100.0 mg/kg/injection, schedule: Q01DX009 (ip), vehicle: saline sonified",101 % of control
same,T/C,[7],110 % of control
C=C1C(=O)O[C@@H]2CC(C)=C3CC[C@@](C)(O)[C@@H]3C[C@H]12,T/C,"dose: 75.0 mg/kg/injection, schedule: Q04DX003 (ip), vehicle: Klucel (hydroxypropylcellulose) (HPC)",106 % of control
same,T/C,"dose: 150.0 mg/kg/injection, schedule: Q04DX003 (ip), vehicle: Klucel (hydroxypropylcellulose) (HPC)",102 % of control
same,T/C,"dose: 300.0 mg/kg/injection, schedule: Q04DX003 (ip), vehicle: Klucel (hydroxypropylcellulose) (HPC)",98 % of control
same,T/C,"dose: 600.0 mg/kg/injection, schedule: Q04DX003 (ip), vehicle: Klucel (hydroxypropylcellulose) (HPC)",94 % of control
Cc1ccc(S(=O)(=O)OCCCl)cc1,T/C,"dose: 100.0 mg/kg/injection, schedule: Q04DX002 (ip), vehicle: saline with Tween-80",98 % of control
same,T/C,"dose: 200.0 mg/kg/injection, schedule: Q04DX002 (ip), vehicle: saline with Tween-80",109 % of control
